# Values quoted from earlier work, collected in patent publication US7285553B2, “Serotonergic 5HT7 receptor compounds for treating ocular and CNS disorders” (Alcon Manufacturing, Ltd., priority 1998, dated 2007).
# Where two headings read alike, the source gives them in different places.
# Experiments:
# IOP [1] = conditions: glaucomatous monkeys
# rabbit eye = conditions: for IOP: rabbits; for intraocular pressure in the anterior chamber of the eye: topically applied to the rabbit eye
# IOP [2] = system: IOP
# IOP [3] = system: IOP; remark: listed apart in the source
compound,measurement,setting,value
COc1ccccc1N1CCN(CCCNc2c(C)c(=O)n(C)c(=O)n2C)CC1 [5-methylurapidil],IOP,IOP [1],lowered IOP
CCCN(CCC)C1CCc2cccc(O)c2C1 (centres unmarked) [8-hydroxy DPAT],IOP,rabbit eye,lower IOP
"NCCc1c[nH]c2ccc(C(N)=O)cc12 [Example 5-CT, 5-carboxamidotryptamine]",intraocular pressure in the anterior chamber of the eye,rabbit eye,raise intraocular pressure
"NCCc1c[nH]c2ccc(O)cc12 [Example 5HT, 5-hydroxy tryptamine]",intraocular pressure in the anterior chamber of the eye,rabbit eye,raise intraocular pressure
same,IOP,IOP [2]; intracamerally,raised IOP
same,blood-aqueous barrier,IOP [2]; intracamerally,caused breakdown of the blood-aqueous barrier
same,IOP,IOP [2]; topically applied,lowers IOP
O=C(c1ccc(F)cc1)C1CCN(CCn2c(=O)[nH]c3ccccc3c2=O)CC1 [Ketanserin],IOP,rabbit eye,lowers IOP
same,IOP,IOP [3]; man,lowers IOP
c1ccc2c(c1)OC[C@H](CNCCCOc1ccc3c(c1)OCO3)O2 [MKC-242],IOP,rabbit eye,lower IOP
CC[C@@H](CO)NC(=O)[C@@H]1C=C2c3cccc4c3c(cn4C)C[C@H]2N(C)C1 [Methysergide],IOP,rabbit eye,lowered IOP
COc1cccc(CCc2ccccc2OCC(CN(C)C)OC(=O)CCC(=O)O)c1 (centres unmarked) [Saprogrelate],IOP,rabbit eye; dosed topically or orally,lowers IOP
same,IOP,"IOP [3]; man, dosed topically or orally",lowers IOP
CNCCC(Oc1ccc(C(F)(F)F)cc1)c1ccccc1 (centres unmarked) [fluoxetine],IOP,"IOP [3]; human subjects, oral administration",raises IOP
